The source of these data is paper PMC3104677 (Molecular microbiology, 2009).

This experiment deals with T1, NrpR (Methanococcus maripaludis, UniProt Q6LZL7).
T1 sequence (Q6LZL7 1-536): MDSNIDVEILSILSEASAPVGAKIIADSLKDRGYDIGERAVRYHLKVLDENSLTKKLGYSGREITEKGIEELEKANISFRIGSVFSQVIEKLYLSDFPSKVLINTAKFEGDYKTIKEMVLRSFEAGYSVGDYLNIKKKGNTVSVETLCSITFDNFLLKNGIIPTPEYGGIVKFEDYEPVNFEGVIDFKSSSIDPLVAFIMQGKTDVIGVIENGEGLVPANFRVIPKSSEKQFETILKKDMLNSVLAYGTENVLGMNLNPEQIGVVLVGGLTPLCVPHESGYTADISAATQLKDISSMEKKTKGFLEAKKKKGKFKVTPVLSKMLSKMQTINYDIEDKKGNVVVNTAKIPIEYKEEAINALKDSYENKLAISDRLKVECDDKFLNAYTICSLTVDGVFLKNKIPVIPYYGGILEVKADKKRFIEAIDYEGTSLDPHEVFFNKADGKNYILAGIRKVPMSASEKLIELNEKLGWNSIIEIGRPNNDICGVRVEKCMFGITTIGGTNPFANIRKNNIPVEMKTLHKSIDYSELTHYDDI
Briefly: EMSA, inhibition of NrpR binding to […]-labelled glnK1 operator DNA. The following applies: inducer ligand; wild type glnK1 operator region O1+O2; 0.1 and 0.4 mM 2OG.

Take `O=C(O)CCC(=O)C(=O)O` [2-oxoglutarate]: the “EMSA, inhibition of NrpR binding to 32P-labelled glnK1 operator DNA” value was 2OG indicates the nitrogen state of the cell and is the inducer ligand.
